Measurements published in ChEMBL document CHEMBL1201862, “PubChem BioAssay data set” (2004).
Activity calls are given as the source filed them.

Legend:
Hexokinase HKDC1 = molecular target: T1, Hexokinase HKDC1 (Homo sapiens, UniProt Q2TB90); experiment: HKDC1 hexokinase inhibitors, dose response, biochemical, W721R variant (AID 504729); type: functional
T1 sequence (Q2TB90 whole entry): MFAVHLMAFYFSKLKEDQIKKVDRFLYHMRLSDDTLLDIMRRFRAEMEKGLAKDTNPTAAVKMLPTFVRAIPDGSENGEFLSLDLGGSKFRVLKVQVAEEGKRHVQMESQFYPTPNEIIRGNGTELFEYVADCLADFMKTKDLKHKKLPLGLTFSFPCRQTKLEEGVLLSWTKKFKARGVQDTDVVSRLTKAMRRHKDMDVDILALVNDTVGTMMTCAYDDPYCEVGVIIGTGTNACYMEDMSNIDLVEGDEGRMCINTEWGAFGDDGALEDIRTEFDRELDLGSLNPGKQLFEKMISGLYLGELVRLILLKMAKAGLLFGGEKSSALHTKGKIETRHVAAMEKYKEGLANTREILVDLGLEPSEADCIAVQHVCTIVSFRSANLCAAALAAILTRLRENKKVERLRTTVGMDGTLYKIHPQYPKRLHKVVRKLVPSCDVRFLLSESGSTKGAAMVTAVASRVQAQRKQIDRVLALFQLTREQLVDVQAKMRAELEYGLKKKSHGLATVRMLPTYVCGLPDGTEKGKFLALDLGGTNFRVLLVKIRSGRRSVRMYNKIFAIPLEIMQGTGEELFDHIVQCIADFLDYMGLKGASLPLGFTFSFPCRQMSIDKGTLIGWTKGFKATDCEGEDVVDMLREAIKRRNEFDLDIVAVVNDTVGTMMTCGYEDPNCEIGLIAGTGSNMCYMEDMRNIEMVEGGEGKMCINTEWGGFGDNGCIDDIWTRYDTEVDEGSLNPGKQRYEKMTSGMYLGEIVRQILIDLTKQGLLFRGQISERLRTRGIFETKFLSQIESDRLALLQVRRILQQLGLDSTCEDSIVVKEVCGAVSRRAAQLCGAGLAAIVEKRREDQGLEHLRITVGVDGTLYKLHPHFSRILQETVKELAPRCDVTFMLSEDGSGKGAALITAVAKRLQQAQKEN

[1] = AlphaScreen signal interference compounds, dose response, artefact control for ARNT-TACC3 interaction inhibitor project, biochemical, luminescence, cherry-pick (AID 651705); type: functional;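 also: AlphaScreen bead proximity signal that flags compounds interfering with the detection technology; potency reflects signal decrease which marks the compound as an assay artifact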
[2] = molecular target: Histone-lysine N-methyltransferase NSD2 (Homo sapiens, UniProt O96028); type: biochemical
Sequence of Histone-lysine N-methyltransferase NSD2 (O96028 whole entry): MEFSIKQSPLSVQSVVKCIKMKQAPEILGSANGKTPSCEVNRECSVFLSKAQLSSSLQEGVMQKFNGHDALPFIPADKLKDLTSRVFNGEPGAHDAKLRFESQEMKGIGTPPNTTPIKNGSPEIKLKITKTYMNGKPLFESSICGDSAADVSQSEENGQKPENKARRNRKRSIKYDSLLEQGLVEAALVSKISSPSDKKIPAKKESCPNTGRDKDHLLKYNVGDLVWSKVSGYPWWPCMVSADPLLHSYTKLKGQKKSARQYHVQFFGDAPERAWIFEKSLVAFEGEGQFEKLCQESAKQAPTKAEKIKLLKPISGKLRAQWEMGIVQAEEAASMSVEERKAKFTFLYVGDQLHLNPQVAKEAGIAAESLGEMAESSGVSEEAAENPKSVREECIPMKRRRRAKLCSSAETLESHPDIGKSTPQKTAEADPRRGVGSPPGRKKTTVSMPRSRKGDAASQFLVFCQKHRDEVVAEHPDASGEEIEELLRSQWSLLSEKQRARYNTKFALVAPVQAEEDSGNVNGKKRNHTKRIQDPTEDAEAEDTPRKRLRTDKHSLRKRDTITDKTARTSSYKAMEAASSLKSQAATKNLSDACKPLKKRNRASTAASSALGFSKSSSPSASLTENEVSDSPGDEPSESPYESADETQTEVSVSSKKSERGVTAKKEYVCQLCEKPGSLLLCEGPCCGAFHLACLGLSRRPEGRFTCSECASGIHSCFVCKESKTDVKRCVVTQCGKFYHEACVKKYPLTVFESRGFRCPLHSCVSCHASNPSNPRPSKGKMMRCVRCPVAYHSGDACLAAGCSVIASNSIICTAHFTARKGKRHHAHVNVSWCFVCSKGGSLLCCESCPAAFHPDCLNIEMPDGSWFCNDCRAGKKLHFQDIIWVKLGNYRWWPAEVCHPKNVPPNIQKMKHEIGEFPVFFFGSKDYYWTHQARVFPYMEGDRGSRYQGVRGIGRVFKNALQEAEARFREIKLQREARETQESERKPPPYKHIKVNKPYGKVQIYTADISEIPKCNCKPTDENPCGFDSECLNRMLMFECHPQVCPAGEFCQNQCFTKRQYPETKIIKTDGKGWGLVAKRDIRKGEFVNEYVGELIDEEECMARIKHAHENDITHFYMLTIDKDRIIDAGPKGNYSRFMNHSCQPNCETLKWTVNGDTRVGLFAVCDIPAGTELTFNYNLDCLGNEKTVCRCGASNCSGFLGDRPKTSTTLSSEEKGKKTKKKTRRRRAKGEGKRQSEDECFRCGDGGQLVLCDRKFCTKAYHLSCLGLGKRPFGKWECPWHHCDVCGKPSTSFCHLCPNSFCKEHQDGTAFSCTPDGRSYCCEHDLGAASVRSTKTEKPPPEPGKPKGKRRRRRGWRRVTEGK

[3] = test system: Streptococcus sp. 'group A'; experiment: growth inhibition of control SK(-) GAS strain, dose response, counter-screen for streptokinase expression inhibitor project, luminescence, kanamycin, BacTiterGlo, confirmation (AID 1900); type: functional, organism-based
Streptokinase A = molecular target: T2, Streptokinase A (Streptococcus pyogenes serotype M1, UniProt P10520); experiment: S. pyogenes streptokinase expression inhibitors, potency, dose response, plasminogen activation absorbance, OD405 (AID 1914); type: functional, Streptococcus pyogenes M1 GAS;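 also: secreted streptokinase activity via plasminogen activation per viability signal from cell pellet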
T2 sequence (P10520 whole entry): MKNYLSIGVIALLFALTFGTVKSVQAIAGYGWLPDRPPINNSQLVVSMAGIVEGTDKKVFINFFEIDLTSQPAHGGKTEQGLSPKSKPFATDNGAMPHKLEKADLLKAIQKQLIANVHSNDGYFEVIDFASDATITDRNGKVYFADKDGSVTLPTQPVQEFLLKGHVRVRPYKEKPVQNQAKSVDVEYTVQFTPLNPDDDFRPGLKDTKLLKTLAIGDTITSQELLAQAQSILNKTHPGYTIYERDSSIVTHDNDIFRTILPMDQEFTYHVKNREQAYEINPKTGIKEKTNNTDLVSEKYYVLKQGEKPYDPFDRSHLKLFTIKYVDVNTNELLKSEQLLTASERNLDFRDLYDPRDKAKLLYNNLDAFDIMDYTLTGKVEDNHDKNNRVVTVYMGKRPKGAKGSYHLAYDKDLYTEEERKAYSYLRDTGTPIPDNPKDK

Streptococcus = experiment: Group A Streptococcus viability loss, dose response, counter-screen for streptokinase expression inhibitor project, luminescence, BacTiterGlo (AID 1915); type: functional, organism-based;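 also: potency for reduction of bacterial viability or growth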
[4] = molecular target: Heat shock protein HSP 90-alpha (Homo sapiens, UniProt P07900); type: functional, organism-based
Insulin-degrading enzyme [5] = molecular target: T3, Insulin-degrading enzyme (Homo sapiens, UniProt P14735); experiment: activators of recombinant IDE enzyme, dose response, counter-screen for IDE activator project, biochemical, fluorescence polarization (AID 588681)
T3 sequence (P14735 whole entry): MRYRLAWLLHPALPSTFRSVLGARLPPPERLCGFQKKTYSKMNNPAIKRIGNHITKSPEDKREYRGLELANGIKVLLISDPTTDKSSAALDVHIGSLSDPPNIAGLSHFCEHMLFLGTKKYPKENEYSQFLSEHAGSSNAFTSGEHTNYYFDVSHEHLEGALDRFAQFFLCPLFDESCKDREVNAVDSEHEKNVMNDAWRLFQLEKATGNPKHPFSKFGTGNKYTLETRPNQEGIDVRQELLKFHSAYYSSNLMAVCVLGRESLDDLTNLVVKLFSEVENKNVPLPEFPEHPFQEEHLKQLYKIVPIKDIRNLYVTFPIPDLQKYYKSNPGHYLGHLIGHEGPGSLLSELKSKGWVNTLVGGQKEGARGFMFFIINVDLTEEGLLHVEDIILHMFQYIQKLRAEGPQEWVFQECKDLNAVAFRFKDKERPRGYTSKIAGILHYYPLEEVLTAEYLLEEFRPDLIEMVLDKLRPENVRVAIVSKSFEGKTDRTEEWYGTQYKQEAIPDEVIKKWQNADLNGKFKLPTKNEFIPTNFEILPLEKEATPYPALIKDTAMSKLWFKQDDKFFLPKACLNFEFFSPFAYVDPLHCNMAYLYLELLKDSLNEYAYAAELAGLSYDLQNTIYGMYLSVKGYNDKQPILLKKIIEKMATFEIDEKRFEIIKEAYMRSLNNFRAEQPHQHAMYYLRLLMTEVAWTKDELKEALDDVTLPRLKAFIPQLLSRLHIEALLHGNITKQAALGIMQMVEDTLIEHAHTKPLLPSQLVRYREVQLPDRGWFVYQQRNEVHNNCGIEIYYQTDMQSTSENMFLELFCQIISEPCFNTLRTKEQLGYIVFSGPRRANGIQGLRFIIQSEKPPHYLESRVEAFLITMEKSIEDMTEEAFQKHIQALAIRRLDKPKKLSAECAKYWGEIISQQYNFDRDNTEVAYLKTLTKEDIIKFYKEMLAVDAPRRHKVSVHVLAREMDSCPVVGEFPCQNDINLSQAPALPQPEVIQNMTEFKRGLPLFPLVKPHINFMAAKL

Insulin-degrading enzyme [6] = molecular target: T3, Insulin-degrading enzyme; experiment: activators of endogenous IDE in HEK cells, dose response, cell-based, fluorescence polarization (AID 588439); type: functional
HEK293 [7] = experiment: HEK cell cytotoxicity by LDH release, dose response, cytotoxicity control for IDE activator project, fluorescence, HEK cells (AID 588440); type: functional, cell-based; conditions: Homo sapiens;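 also: cytotoxicity by LDH release measuring loss of membrane integrity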
HEK293 [8] = experiment: optical interference in Abeta FP readout, dose response, artefact control for IDE activator project, biochemical, fluorescence polarization (AID 588442); type: functional, cell-based; conditions: Homo sapiens

NC1=CC(=O)C(=O)c2ccccc21 [4-AMINO-[1,2]NAPHTHOQUINONE]
IC50 (Hexokinase HKDC1): 34 µM (inactive)
AC50 [1]: 107 µM (active)
AC50 [2]: 1.74 µM (active)

Oc1cc(OCc2ccccc2)ccc1-c1[nH]ncc1-c1ccccc1
EC50 [3]: 2.88 µM (active)
EC50 (Streptokinase A): > 150 µM (not active)
EC50 (Streptococcus): 10.5 µM (active)
AC50 [4]: 9.12 µM (active)
EC50 (Insulin-degrading enzyme [5]): > 54.7 µM (inactive)
EC50 (Insulin-degrading enzyme [6]): > 54.7 µM (inactive)
IC50 (HEK293 [7]): 16.9 µM (inactive)
EC50 (HEK293 [8]): > 55.9 µM (inactive)
